# Patent US9593149B2, “Amylin and calcitonin receptor agonist” (Novo Nordisk A/S, priority 2014, dated 2017)
# Numbered stars: 1 amine (or outer) side, 2 acyl side, 3 side chain; on linkers, the order of the positions; unused ones are H or OH. Peptide text beside a SMILES is read from it. * marks the point of attachment. C20 diacid = O=C(O)CCCCCCCCCCCCCCCCCCC(=O)*; C18 diacid = O=C(O)CCCCCCCCCCCCCCCCC(=O)*; γGlu = O=C(O)[C@H](CCC(=O)[*:2])N[*:1]
# Assay: Assay (IV) determination of solubility
# Type: physicochemical
# Procedure: Assay (IV)—Determination of Solubility
# The mimylin peptide was dissolved in water at ˜500 nmol/ml and mixed 1:1 with a series of buffers (100 mM glycylglycine pH 3.0, 100 mM glycylglycine pH 4.0, 100 mM glycylglycine pH 5.0, 100 mM bistrispropane pH 6.0, 100 mM bistrispropane pH 6.5, 100 mM bistrispropane pH 7.0, 100 mM bistrispropane pH 7.5, 100 mM bistrispropane pH 8.0).
Solubility (pH 3.0),Solubility (pH 4.0),Solubility (pH 5.0),Solubility (pH 6.0),Solubility (pH 6.5),Solubility (pH 7.0),Solubility (pH 7.5),Solubility (pH 8.0),solubility at 18 h (pH 4.0) [µM],SMILES
≧200 μM,≧200 μM,≧200 μM,≧200 μM,≧200 μM,≧200 μM,≧200 μM,≧200 μM,–,"CC(C)C[C@H](NC(=O)CNC(=O)[C@H](CO)NC(=O)[C@H](C)NC(=O)CC[C@H](NC(=O)CCCCCCCCCCCCCCCCCCC(=O)O)C(=O)O)C(=O)N[C@@H](CO)C(=O)N[C@H](C(=O)N[C@@H](C)C(=O)N[C@H](C(=O)N[C@@H](CC(C)C)C(=O)NCC(=O)N[C@@H](CCCNC(=N)N)C(=O)N[C@@H](CC(C)C)C(=O)N[C@@H](CO)C(=O)N[C@@H](C)C(=O)N[C@@H](CCC(=O)O)C(=O)N[C@@H](CC(C)C)C(=O)N[C@@H](Cc1cnc[nH]1)C(=O)N[C@@H](CCC(=O)O)C(=O)N[C@@H](CC(C)C)C(=O)N[C@@H](C)C(=O)N[C@H](C(=O)N[C@@H](Cc1ccc(O)cc1)C(=O)N1CCC[C@H]1C(=O)N[C@@H](CCCNC(=N)N)C(=O)N[C@H](C(=O)N[C@@H](CCC(=O)O)C(=O)N[C@H](C(=O)NCC(=O)N[C@@H](CO)C(=O)NCC(=O)N[C@H](C(=O)N1CCC[C@H]1C(N)=O)[C@@H](C)O)[C@@H](C)O)[C@@H](C)O)[C@@H](C)O)C(C)C)[C@@H](C)O [compound 98, [N-terminal(C20 diacid-gGlu), des1, 4G, 9V, 23Y, 30S, 31G, 32T]mimylin] ({C20 diacid-γGlu}-ASGLSTAVLGRLSAELHELATYPRTETGSGTP-NH2)"
≧200 μM,–,≧200 μM,≧200 μM,≧200 μM,≧200 μM,≧200 μM,≧200 μM,182,"CC[C@H](C)[C@H](NC(=O)[C@H](C)NC(=O)[C@@H](NC(=O)[C@H](CO)NC(=O)[C@H](CC(C)C)NC(=O)[C@H](CCC(=O)O)NC(=O)[C@H](CO)NC(=O)[C@H](C)NC(=O)[C@H](CCC(=O)O)NC(=O)CCCCCCCCCCCCCCCCC(=O)O)[C@@H](C)O)C(=O)N[C@@H](CC(C)C)C(=O)NCC(=O)N[C@@H](CCCNC(=N)N)C(=O)N[C@@H](CC(C)C)C(=O)N[C@@H](CO)C(=O)N[C@@H](C)C(=O)N[C@@H](CCC(=O)O)C(=O)N[C@@H](CC(C)C)C(=O)N[C@@H](Cc1cnc[nH]1)C(=O)N[C@@H](CCC(=O)O)C(=O)N[C@@H](CC(C)C)C(=O)N[C@@H](C)C(=O)N[C@H](C(=O)N[C@@H](CC(C)C)C(=O)N1CCC[C@H]1C(=O)N[C@@H](CCCNC(=N)N)C(=O)N[C@H](C(=O)N[C@@H](CCC(=O)O)C(=O)N[C@H](C(=O)NCC(=O)N1CCC[C@H]1C(=O)N[C@@H](CCC(=O)O)C(=O)N[C@@H](CO)C(=O)N1CCC[C@H]1C(N)=O)[C@@H](C)O)[C@@H](C)O)[C@@H](C)O [compound 10, [N-terminal(C18 diacid), 9I]mimylin] ({C18 diacid}-EASELSTAILGRLSAELHELATLPRTETGPESP-NH2)"
